According to article PMC10225205 (Cancer Medicine, 2023):
Values joined by “and” are separate entries in the source; they are usually repeats but may differ in a detail not shown here. Equal values may be shown once. “Also recorded” adds a separate entry of the source. Read-outs that look alike come from different tables or passages of the source.

What was measured:
FGF23 = test: Plasma FGF23 concentration (Meso Scale Discovery assay); format: in vivo, human
Procedure: Plasma samples for pharmacodynamic assessments were collected predose on Days 1, 14, and 15 of Cycle 1 and any time on Day 1 (±3 days) of the subsequent cycles. […] Baseline FGF23 concentrations were assessed in plasma samples collected on Days 1 and 15 of Cycle 1 using a commercially available assay (Meso Scale Discovery). […] Inhibition of FGFR2 was assessed using an ex vivo assay that measured phosphorylated FGFR2α concentration following exposure of FGFR2‐amplified gastric cancer cells (KATOIII) to patient plasma.

[1] = human, in vivo
Procedure: (§1) Postdose samples were collected at 0.5, 1, 2, 4, 6, and 8 h on Day 1, and at 1 h on Day 14 of Cycle 1. For patients in the CD regimen, a postdose sample at 6 h on Day 14 was also collected.
(§2) Pharmacodynamic data were presented using summary statistics.

[2] = tested on: refractory advanced malignancies; settings: cited from earlier work
pFGFR2 = settings: read-out: In vivo IC50 for the inhibition of pFGFR2; cited from earlier work
clinical = settings: human, in vivo; for AUC: AUCss,0-24h; for Vd/F: Vz/F; for Tmax: median; for half-life: t½
Procedure: as §1, §2

[3] = FIGHT-102 pemigatinib plasma/urine pharmacokinetics (noncompartmental); settings: for AUC(0-t) / AUC / Cmax / Vd/F / Tmax / half-life: human, in vivo, 13.5 mg; for AUC: AUCss,0-24h; for Vd/F: Vz/F; for Tmax: median; for half-life: t½
Procedure: as §1, §2

[4] = c1-2 9 mg ID n=3, c3-4 13.5 mg ID n=23, c5-6 18 mg ID n=5, c7-8 ID subtotal n=31, c9-10 13.5 mg CD n=13, c11-12 total n=44, odd c all grades, even c Grade ≥3
[5] = geometric mean (CV%), C1D14, 13.5 mg ID or CD, n 33
[6] = mean ± SD, C1D14, 13.5 mg ID or CD, n 33

In the case of `CCN1C(=O)N(c2c(F)c(OC)cc(OC)c2F)Cc2cnc3[nH]c(CN4CCOCC4)cc3c21` [Pemigatinib], the “Mean increase of plasma FGF23” value (FGF23; 9 mg) is reported as 2.6 fold, the “Mean increase of plasma FGF23” value (FGF23; 13.5 mg) is reported as 2.9 fold and the “Rise of median FGF23 concentration from baseline” value (FGF23; 13.5 mg QD, first 2 weeks of treatment) is reported as “slightly more than twofold”. The “Mean increase of plasma FGF23” value (FGF23; 18 mg) was 3.9 fold, the “Patients with elevated FGF23 concentration at Day 15 of Cycle 1” value (FGF23; 37/41 patients, all doses) was 90% and the “Mean FGF23 concentration” value (FGF23; C1D15, all doses, baseline 198 ± 29) was 464 ± 49 pg/mL. The “Maximum tolerated dose (MTD)” value (9-18 mg QD) was “not identified; also recorded: not reached”, the “Clinically notable TEAE: Eyelash changes (trichiasis)” value [4] was 2 (15.4) n (%) and the “TEAE: ALT increased” value [4] was 6 (13.6) n (%). For the same compound, the “TEAE: AST increased” value [4] was 2 (15.4) n (%), the “TEAE: Blood alkaline phosphatase increased” value [4] was 2 (15.4) n (%) and the “TEAE: Blood creatinine increased” value [4] was 6 (13.6) n (%). The “TEAE: Conjunctivitis” value [4] was 2 (15.4) n (%), the “TEAE: Decreased appetite” value [4] was 2 (15.4) n (%) and the “TEAE: Dry skin” value [4] was 2 (15.4) n (%). For the same compound, the “TEAE: Keratitis” value [4] was 2 (15.4) n (%), the “TEAE: Malaise” value [4] was 6 (13.6) n (%) and the “TEAE: Nail discoloration” value [4] was 2 (15.4) n (%). The “TEAE: Paronychia” value [4] was 6 (13.6) n (%), the “TEAE: Punctate keratitis” value [4] was 2 (15.4) n (%) and the “TEAE: Trichiasis” value [4] was 2 (15.4) n (%). The “TEAE: Vomiting” value [4] was 6 (13.6) n (%), the Chorioretinopathy (human, in vivo) was 2.3% and the “Clinically notable TEAE: serous retinal detachment (category)” value (human, in vivo) was 18.2%. For the same compound, the “Clinically notable ocular TEAE: dry eye (category)” value (human, in vivo) was 25%, the “Dose interruptions due to clinically notable TEAEs” value (human, in vivo) was 22.7% and the “Dose reductions due to clinically notable TEAEs” value (human, in vivo) was 6.8%. For the same compound, the “Dry eye (term)” value (human, in vivo) was 6.8%, the “Eyelash changes (trichiasis)” value (human, in vivo) was 9.1% and the “Hyperphosphatemia leading to dose reduction” value (human, in vivo) was 2.3%. It also gave a Hypophosphatemia (human, in vivo) of 4.5%, a Keratitis (human, in vivo) of 11.4% and a Lacrimation increased (human, in vivo) of 2.3%. For the same compound, the Nail discoloration (human, in vivo) was 6.8%, the Nail ridging (human, in vivo) was 2.3% and the “Nail toxicity TEAEs” value (human, in vivo) was 31.8. It also gave an Oncholysis (human, in vivo) of 4.5%, an Onychomadesis (human, in vivo) of 11.4% and a Paronychia (human, in vivo) of 13.6%. For the same compound, the “Patients with at least 1 treatment-related TEAE” value (human, in vivo) was 97.7%, the “Patients with treatment-related TEAEs of Grade ≥3” value (human, in vivo) was 15.9% and the Punctate keratitis (human, in vivo) was 6.8%. For the same compound, the “Serous retinal detachment (term)” value (human, in vivo) was 11.4%, the “Severity of hyperphosphatemia events” value (human, in vivo) was “Grades 1 or 2” and the Subretinal fluid (human, in vivo) was 4.5%. The “Treatment-related Grade ≥3 TEAE, each of anemia, punctate keratitis, diarrhea, stomatitis, ALT increased, AST increased, decreased appetite, hematuria” value (human, in vivo) was 2.3%, the “Treatment-related alanine aminotransferase increased, Grade ≥3” value (human, in vivo) was 1 (2.3) n (%) and the “Treatment-related aspartate aminotransferase increased, Grade ≥3” value (human, in vivo) was 1 (2.3) n (%). The “Treatment-related decreased appetite, Grade ≥3” value (human, in vivo) was 1 (2.3) n (%), the “Treatment-related diarrhea, Grade ≥3” value (human, in vivo) was 1 (2.3) n (%) and the “Treatment-related stomatitis, Grade ≥3” value (human, in vivo) was 1 (2.3) n (%). For the same compound, the Vision blurred (human, in vivo) was 4.5%, the “Recommended phase 2 dose (RP2D)” value (human, in vivo, 21 days) was 13.5 mg and the “Discontinuation due to hyperphosphatemia” value (in vivo) was “No patients”. For the same compound, the “Dose-limiting toxicities (DLTs)” value (in vivo) was “No DLTs”, the “Patients with any TEAE” value (in vivo) was “all enrolled patients” and the “TEAE with a fatal outcome” value (overall, considered unrelated to pemigatinib) was 6.8%. The “Geometric mean fraction of dose excreted in urine” value [1] was 2.48%, the “CLss/F, geometric mean (CV%)” value ([1]; 9 mg) was 8.99 (91.0) L/h and the “CLss/F, mean ± SD” value ([1]; 9 mg) was 10.6 ± 6.31 L/h. The “tmax, median” value ([1]; 9 mg) was 0.967 h, the “CLss/F, geometric mean (CV%)” value ([1]; 18 mg) was 5.63 (43.8) L/h and the “CLss/F, mean ± SD” value ([1]; 18 mg) was 5.96 ± 2.50 L/h. For the same compound, the “tmax, median” value ([1]; 18 mg) was 0.833 h, the Median progression-free survival ([2]; FGFR fusions or rearrangements, 95% CI 2.8–10.0) was 5.7 months and the Objective response rate ([2]; FGFR fusions or rearrangements, 95% CI 8.7–49.1) was 25.0%. For the same compound, the Partial responses ([2]; across tumor types) was 12 n, the Objective response rate ([2]; all patients, 95% CI 4.9–15.8) was 9.4% and the “Median duration of response” value ([2]; all responders, 95% CI 3.3–14.5) was 7.3 months. The IC50 (pFGFR2) was 0.0226 µM, the AUC(0-t) (clinical; 9 mg, AUC0-24h, geometric mean (CV%)) was 1.12 µM·h and the AUC(0-t) (clinical; 9 mg, AUC0-24h, mean ± SD) was 1.13 ± 0.133 µM·h. It also gave an AUC(0-t) (clinical; 9 mg, AUClast, geometric mean (CV%)) of 1.12 µM·h, an AUC(0-t) (clinical; 9 mg, AUClast, mean ± SD) of 1.12 ± 0.125 µM·h and an AUC (clinical; 9 mg, geometric mean (CV%)) of 2.05 µM·h. The AUC (clinical; 9 mg, mean ± SD) was 2.54 ± 2.1 µM·h, the Cmax (clinical; 9 mg, Cmax, geometric mean (CV%)) was 110 nM and the Cmax (clinical; 9 mg, Cmax, mean ± SD) was 114 ± 35.3 nM. It also gave a Cmax (clinical; 9 mg, Cmax,ss, geometric mean (CV%)) of 127 nM, a Cmax (clinical; 9 mg, Cmax,ss, mean ± SD) of 155 ± 117 nM and a Vd/F (clinical; 9 mg, geometric mean (CV%)) of 209 L. For the same compound, the Vd/F (clinical; 9 mg, mean ± SD) was 224 ± 104 L, the Tmax (clinical; 9 mg) was 1.9 h and the half-life (clinical; 9 mg, geometric mean (CV%)) was 16.1 h. It also gave a half-life (clinical; 9 mg, mean ± SD) of 17.1 ± 7.44 h, an AUC(0-t) (clinical; 18 mg, AUC0-24h, geometric mean (CV%)) of 3.31 µM·h and an AUC(0-t) (clinical; 18 mg, AUC0-24h, mean ± SD) of 3.45 ± 1.02 µM·h. It also gave an AUC(0-t) (clinical; 18 mg, AUClast, geometric mean (CV%)) of 3.24 µM·h, an AUC(0-t) (clinical; 18 mg, AUClast, mean ± SD) of 3.38 ± 1.01 µM·h and an AUC (clinical; 18 mg, geometric mean (CV%)) of 6.56 µM·h. The AUC (clinical; 18 mg, mean ± SD) was 6.95 ± 2.78 µM·h, the Cmax (clinical; 18 mg, Cmax, geometric mean (CV%)) was 344 nM and the Cmax (clinical; 18 mg, Cmax, mean ± SD) was 431 ± 272 nM. For the same compound, the Cmax (clinical; 18 mg, Cmax,ss, geometric mean (CV%)) was 385 nM, the Cmax (clinical; 18 mg, Cmax,ss, mean ± SD) was 450 ± 285 nM and the Vd/F (clinical; 18 mg, geometric mean (CV%)) was 154 L. For the same compound, the Vd/F (clinical; 18 mg, mean ± SD) was 205 ± 188 L, the Tmax (clinical; 18 mg) was 1.02 h and the half-life (clinical; 18 mg, geometric mean (CV%)) was 18.9 h. For the same compound, the half-life (clinical; 18 mg, mean ± SD) was 20.7 ± 11.2 h, the “tmax, median” value ([3]; C1D1, 13.5 mg ID or CD, n 36) was 1 h and the “CLss/F, geometric mean (CV%)” value ([3]; C1D14, 13.5 mg ID or CD, n 33) was 10.2 (55.5) L/h and 10.2 L/h. For the same compound, the “CLss/F, mean ± SD” value ([3]; C1D14, 13.5 mg ID or CD, n 33) was 11.6 ± 6.52 L/h, the “Cmin,ss, geometric mean (CV%)” value ([3]; C1D14, 13.5 mg ID or CD, n 33) was 56.0 (61.0) nM and the “Cmin,ss, mean ± SD” value ([3]; C1D14, 13.5 mg ID or CD, n 33) was 66.2 ± 45.2 nM. For the same compound, the AUC(0-t) ([3]; AUC0-24h, geometric mean (CV%), C1D1, 13.5 mg ID or CD, n 36) was 1.88 µM·h, the AUC(0-t) ([3]; AUC0-24h, mean ± SD, C1D1, 13.5 mg ID or CD, n 36) was 2.02 ± 0.762 µM·h and the AUC(0-t) ([3]; AUClast, geometric mean (CV%), C1D1, 13.5 mg ID or CD, n 36) was 1.85 µM·h. The AUC(0-t) ([3]; AUClast, mean ± SD, C1D1, 13.5 mg ID or CD, n 36) was 1.99 ± 0.748 µM·h, the AUC [3, 5] was 2.72 µM·h and the AUC [3, 6] was 3.09 ± 1.68 µM·h. The Cmax ([3]; Cmax, geometric mean (CV%), C1D1, 13.5 mg ID or CD, n 36) was 216 nM, the Cmax ([3]; Cmax, mean ± SD, C1D1, 13.5 mg ID or CD, n 36) was 260 ± 136 nM and the Cmax ([3]; Cmax,ss, geometric mean (CV%), C1D14, 13.5 mg ID or CD, n 33) was 195 nM. For the same compound, the Cmax ([3]; Cmax,ss, mean ± SD, C1D14, 13.5 mg ID or CD, n 33) was 238 ± 139 nM, the Vd/F [3, 5] was 201 L and the Vd/F [3, 6] was 258 ± 216 L. The Tmax ([3]; C1D1, 13.5 mg ID or CD, n 36) was 1.43 h, the Tmax ([3]; C1D14, 13.5 mg ID or CD, n 33) was 1.02 h and the half-life [3, 5] was 13.6 h. It also gave a half-life [3, 6] of 15.4 ± 9.03 h.
